The source of these data is US20230406821A1, “STRIGOLACTONE DERIVATIVES” (Plant Response, Inc., priority 2017, published 2023).

In experiment [1] the test system is Arabidopsis thaliana homozygous max4 knockout mutant. The experiment is described as follows: Complementation of ectopic shoot branching in max4 strigolactone biosynthesis mutant. The conditions noted are these: max4 mutant line, 10 μM in 0.5× Hoagland's reservoir solution, 0.1% DMSO, 3 weeks of treatment, vs DMSO control (FIG. 1). It is filed as in vivo. From the text: FIG. 1 is a plot of the number of secondary bolts over 0.5 cm long of strigolactone biosynthesis mutant, homozygous max4 knockout, plants that have a primary bolt over 6 cm long treated with solution containing control solvent DMSO, strigolactone molecule MBS-127 in DMSO, and strigolactone molecule MBS-128 in DMSO. Stars indicate significant differences relative to the DMSO control based on the Welch's t-test (*: adjusted p-value <0.1; p-values adjusted for multiple-hypothesis testing
The ability of a novel compound to act in an equivalent manner to a native strigolactone can be assessed by testing its ability to complement phenotypes caused by mutations that disrupt the natural biosynthesis of strigolactones within the plant.
The metric used to assess branching was the number of secondary bolts over 0.5 cm in length in plants that have a primary bolt over 6 cm long. Assessments were made after treatments with solution containing control solvent DMSO, the strigolactone molecule MBS-127 in DMSO, and the strigolactone molecule MBS-128 in DMSO as detailed below. Stratified A. thaliana homozygous max4 knockout mutant seeds were planted on rockwool plugs suspended above reservoirs of 0.5× Hoagland's solution. The plants were grown under 16 hours of light per day at 22° C. and at 19° C. during the nights throughout the experiment. […]

The subject of a further experiment is BRANCHED1 (BRC1) gene. The experiment is described as follows: BRC1 gene expression by RT-PCR in sprayed seedlings. It is filed as in vivo, Arabidopsis thaliana. Particulars: Col-0 seedlings, foliar spray, 0.4% DMSO, shoots harvested 24 hours later; similarly to GR24 (FIG. 2). An excerpt:
FIG. 2 is a boxplot representing Ct value distributions of BRC1 relative to constitutive control Ct values plotted as ΔCt. Due to the non-normal distribution of the BRC1 data, non-parametric Mann-Whitney U-tests were used to assess statistical significance. Stars indicate significant differences relative to the DMSO control (**: adjustedp-value <0.001; *: adjusted p-value <0.01; p-values adjusted for multiple-hypothesis testing with the Bonferroni correction). […]
Another experiment was performed to consider an aspect of molecular signal transduction. A number of genes in Arabidopsis thaliana are well known downstream signaling targets of the native strigolactone pathway. […]
In this experiment sterilized and stratified seeds of the A. thaliana Columbia (Col-0) were planted on growth media (Murashige and Skoog (MS) M404 with vitamins (2.2 g/L), 0.5% sucrose, 0.05% IVIES hydrate, 0.6% PhytoBlend™) for eight days in a growth chamber under 16 hours of light per day at 22° C. and 19° C. nights. […] Total RNA was extracted and RT-PCR quantification was performed using kits from Macherey-Nagel and Bioline and an ABI 7900HT instrument. […]

Experiment [2] has as its system A. thaliana Columbia (Col-0) seedlings. The experiment is described as follows: Desiccation stress survival assay of seedlings. It is filed as in vivo, Arabidopsis thaliana. The conditions noted are these: 50 μM in media, 0.4% DMSO, three days, 4 hours desiccation, seven days recovery (FIG. 5). An excerpt:
Post germination desiccation is an extreme form of dehydration which can be used as a survival assay for testing abiotic stress tolerance in plants. While desiccation stress is distinct from the gradual onset of drought typically experienced in an agricultural setting, the response in the plant has many commonalities across both cases (Fernando, V. C., & Schroeder, D. F. “Role of ABA in Arabidopsis Salt, Drought, and Desiccation Tolerance,” (2016), pp. 507-518), and increased tolerance in one case can often predict tolerance in the other.
In this experiment sterilized and stratified seeds of the A. thaliana Columbia (Col-0) were planted on growth media (Murashige and Skoog (MS) M404 with vitamins (2.2 g/L), 0.5% sucrose, 0.05% IVIES hydrate, 0.6% PhytoBlend™) and grown for nine days in a growth chamber with continuous light at 22° C. The seedlings were then transplanted to same media supplemented with the control solvent DMSO, strigolactone molecule MBS-127 in DMSO, or strigolactone molecule MBS-128 in DMSO. The final concentration of DMSO in the media was 0.4% and the concentration of MBS-127 and MBS-128 was 50 μM. After three days of growth on the treatment media the seedlings were photographed and then transplanted to dry filter paper and subjected to 4 hours of desiccation stress. […]

Another experiment relates to Z. mays. The experiment is described as follows: Root hair elongation in maize under insufficient phosphate. Type of experiment: in vivo, Zea mays. The conditions noted are these: various nutrient levels, shown under insufficient phosphate conditions, vs DMSO (FIG. 4). An excerpt:
FIG. 4 is a boxplot graph representing the distribution of maximum root hair length in the root apical zone of Z. mays with the control solvent DMSO, strigolactone molecule MBS-127 in DMSO, and strigolactone molecule MBS-128 in DMSO. Stars indicate significant differences relative to the DMSO control (*: adjustedp-value <0.1; p-values were adjusted for multiple-hypothesis testing using a Bonferroni correction). Representative images show root hairs in the root apical zone of plants treated with the control solvent DMSO, strigolactone molecule MBS-127 in DMSO, and strigolactone molecule MBS-128 in DMSO. Scale bars equal 10 mm.

Regarding `COC(=O)/C=C/OC1C=C(C)C(=O)O1` (centres unmarked) [MBS-127, 3-(4-Methyl-5-oxo-2,5-dihydro-furan-2-yloxy)-acrylic acid methyl ester], the “ectopic branching phenotype (number of secondary bolts over 0.5 cm on plants with primary bolt over 6 cm)” value in experiment [1] is recorded as “effective in reducing the ectopic branching phenotype”. Besides, the “expression of the BRC1 gene (ΔCt)” value in the experiment with BRANCHED1 (BRC1) gene is reported as “induced expression of the BRC1 gene”. In addition, the “survival and vigor of seedlings exposed to severe desiccation stress” value in experiment [2] is “increase the survival and vigor”. Further, the “root hair elongation (maximum root hair length in the root apical zone)” value in the experiment with Z. mays is “induce root hair elongation”.

On to `COC(=O)/C=C/OC1(C)C=C(C)C(=O)O1` (centres unmarked) [MBS-128, methyl (E)-3-((2,4-dimethyl-5-oxo-2,5-dihydrofuran-2-yl)oxy)acrylate], for which the “ectopic branching phenotype (number of secondary bolts over 0.5 cm on plants with primary bolt over 6 cm)” value in experiment [1] was “effective in reducing the ectopic branching phenotype”. Besides, the “expression of the BRC1 gene (ΔCt)” value in the experiment with BRANCHED1 (BRC1) gene was “induced expression of the BRC1 gene”. Further, the “survival and vigor of seedlings exposed to severe desiccation stress” value in experiment [2] was “increase the survival and vigor”. Moreover, in the experiment on Z. mays, the “root hair elongation (maximum root hair length in the root apical zone)” value is reported as “induce root hair elongation”.
